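Where inhibition never reached the appropriate level, the endpoint shown equals the highest concentration tested. Otherwise, values were interpolated linearly from a five-concentration, 48-hour dose response in 96-well plates. At the GI50, growth is halved. TGI: total growth inhibition.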
Columns and labels:
Test in all cases: inhibition of tumour cell growth, NCI panel, 48 h; in the data active means GI50 below about 0.43 µM; inactive means the rest
786-0 renal = test system: 786-0 renal
A498 renal = test system: A498 renal
A549 NSCLC = test system: A549 NSCLC
ACHN renal = test system: ACHN renal
BT-549 breast = test system: BT-549 breast
CAKI-1 renal = test system: CAKI-1 renal
CCRF-CEM leukemia = test system: CCRF-CEM leukemia
COLO 205 colon = test system: COLO 205 colon
DU-145 prostate = test system: DU-145 prostate
HCC-2998 colon = test system: HCC-2998 colon
HCT-116 colon = test system: HCT-116 colon
HCT-15 colon = test system: HCT-15 colon
HOP-62 NSCLC = test system: HOP-62 NSCLC
HOP-92 NSCLC = test system: HOP-92 NSCLC
HS 578T breast = test system: HS 578T breast
HT29 colon = test system: HT29 colon
IGROV1 ovarian = test system: IGROV1 ovarian
K-562 leukemia = test system: K-562 leukemia
KM12 colon = test system: KM12 colon
LOX IMVI melanoma = test system: LOX IMVI melanoma
M14 melanoma = test system: M14 melanoma
MCF7 breast = test system: MCF7 breast
MDA-MB-231 breast = test system: MDA-MB-231 breast
MDA-MB-435 = test system: MDA-MB-435
MOLT-4 leukemia = test system: MOLT-4 leukemia
NCI-H226 lung = test system: NCI-H226 lung
NCI-H23 lung = test system: NCI-H23 lung
NCI-H460 lung = test system: NCI-H460 lung
NCI-H522 lung = test system: NCI-H522 lung
NCI/ADR-RES ovarian = test system: NCI/ADR-RES ovarian
OVCAR-4 ovarian = test system: OVCAR-4 ovarian
OVCAR-5 ovarian = test system: OVCAR-5 ovarian
OVCAR-8 ovarian = test system: OVCAR-8 ovarian
PC-3 prostate = test system: PC-3 prostate
RPMI-8226 leukemia = test system: RPMI-8226 leukemia
RXF 393 renal = test system: RXF 393 renal
SF-268 CNS = test system: SF-268 CNS
SF-295 CNS = test system: SF-295 CNS
SF-539 CNS = test system: SF-539 CNS
SK-MEL-2 melanoma = test system: SK-MEL-2 melanoma
SK-MEL-28 melanoma = test system: SK-MEL-28 melanoma
SK-MEL-5 melanoma = test system: SK-MEL-5 melanoma
SK-OV-3 ovarian = test system: SK-OV-3 ovarian
SN12C renal = test system: SN12C renal
SNB-19 CNS = test system: SNB-19 CNS
SNB-75 CNS = test system: SNB-75 CNS
SR leukemia = test system: SR leukemia
SW-620 colon = test system: SW-620 colon
T-47D breast = test system: T-47D breast
U251 CNS = test system: U251 CNS
UACC-257 melanoma = test system: UACC-257 melanoma
UACC-62 melanoma = test system: UACC-62 melanoma
UO-31 renal = test system: UO-31 renal
EKVX NSCLC = test system: EKVX NSCLC
HL-60(TB) leukemia = test system: HL-60(TB) leukemia
OVCAR-3 ovarian = test system: OVCAR-3 ovarian
TK-10 renal = test system: TK-10 renal

COC(=O)C(Cc1ccccc1)N/C=C\C(=O)c1ccc(Cl)cc1 (stereo not given)
67.6 µM: TGI (HOP-62 NSCLC)
50.4 µM: TGI (NCI/ADR-RES ovarian)
67.1 µM: TGI (UACC-257 melanoma)
66.4 µM: TGI (MCF7 breast)
92.4 µM: TGI (SK-OV-3 ovarian)
77.3 µM: TGI (NCI-H226 lung)
51.7 µM: TGI (U251 CNS)
44.7 µM: TGI (M14 melanoma)
33.5 µM: TGI (SK-MEL-5 melanoma)
40.9 µM: TGI (MDA-MB-231 breast)
40.5 µM: TGI (SN12C renal)
88.9 µM: TGI (OVCAR-8 ovarian)
45.7 µM: TGI (NCI-H23 lung)
35.8 µM: TGI (SF-295 CNS)
74.4 µM: TGI (OVCAR-5 ovarian)
39.4 µM: TGI (LOX IMVI melanoma)
36.9 µM: TGI (HCT-116 colon)
67.4 µM: TGI (SF-268 CNS)
47.1 µM: TGI (KM12 colon)
45.8 µM: TGI (UACC-62 melanoma)
inactive: GI50 (786-0 renal) 23.6 µM | GI50 (A498 renal) 31.1 µM | GI50 (A549 NSCLC) 50.1 µM | GI50 (ACHN renal) 23.6 µM | GI50 (BT-549 breast) 28.1 µM | GI50 (CAKI-1 renal) 21.3 µM | GI50 (CCRF-CEM leukemia) 39.7 µM | GI50 (COLO 205 colon) 32.5 µM | GI50 (DU-145 prostate) 31.5 µM | GI50 (HCC-2998 colon) 18.5 µM | GI50 (HCT-116 colon) 16.4 µM | GI50 (HCT-15 colon) 23.6 µM | GI50 (HOP-62 NSCLC) 25.1 µM | GI50 (HOP-92 NSCLC) 43.7 µM | GI50 (HS 578T breast) 25 µM | GI50 (HT29 colon) 35.1 µM | GI50 (IGROV1 ovarian) > 100 µM | GI50 (K-562 leukemia) 54.7 µM | GI50 (KM12 colon) 21.2 µM | GI50 (LOX IMVI melanoma) 19.6 µM | GI50 (M14 melanoma) 19.1 µM | GI50 (MCF7 breast) 26.2 µM | GI50 (MDA-MB-231 breast) 14.4 µM | GI50 (MDA-MB-435) 14.1 µM | GI50 (MOLT-4 leukemia) 35.2 µM | GI50 (NCI-H226 lung) 26 µM | GI50 (NCI-H23 lung) 18.3 µM | GI50 (NCI-H460 lung) 20.5 µM | GI50 (NCI-H522 lung) 32.5 µM | GI50 (NCI/ADR-RES ovarian) 19.7 µM | GI50 (OVCAR-4 ovarian) 50.4 µM | GI50 (OVCAR-5 ovarian) 24.9 µM | GI50 (OVCAR-8 ovarian) 35.3 µM | GI50 (PC-3 prostate) 18.8 µM | GI50 (RPMI-8226 leukemia) 36.7 µM | GI50 (RXF 393 renal) 20.4 µM | GI50 (SF-268 CNS) 31.6 µM | GI50 (SF-295 CNS) 14.8 µM | GI50 (SF-539 CNS) 18.6 µM | GI50 (SK-MEL-2 melanoma) 59.9 µM | GI50 (SK-MEL-28 melanoma) 45.4 µM | GI50 (SK-MEL-5 melanoma) 19.3 µM | GI50 (SK-OV-3 ovarian) 26.7 µM | GI50 (SN12C renal) 16.7 µM | GI50 (SNB-19 CNS) 38 µM | GI50 (SNB-75 CNS) > 100 µM | GI50 (SR leukemia) 48.1 µM | GI50 (SW-620 colon) 31.7 µM | GI50 (T-47D breast) 37 µM | GI50 (U251 CNS) 22 µM | GI50 (UACC-257 melanoma) 26.5 µM | GI50 (UACC-62 melanoma) 19.7 µM | GI50 (UO-31 renal) 38.4 µM
53.3 µM: TGI (RXF 393 renal)
75.8 µM: TGI (A498 renal)
59.3 µM: TGI (HCT-15 colon)
48.2 µM: TGI (NCI-H460 lung)
61.9 µM: TGI (786-0 renal)
40.1 µM: TGI (HCC-2998 colon)
> 100 µM: TGI (A549 NSCLC) | TGI (BT-549 breast) | TGI (CCRF-CEM leukemia) | TGI (COLO 205 colon) | TGI (DU-145 prostate) | TGI (HOP-92 NSCLC) | TGI (HT29 colon) | TGI (IGROV1 ovarian) | TGI (K-562 leukemia) | TGI (MOLT-4 leukemia) | TGI (NCI-H522 lung) | TGI (OVCAR-4 ovarian) | TGI (RPMI-8226 leukemia) | TGI (SK-MEL-2 melanoma) | TGI (SK-MEL-28 melanoma) | TGI (SNB-19 CNS) | TGI (SNB-75 CNS) | TGI (SR leukemia) | TGI (T-47D breast) | TGI (UO-31 renal)
54.9 µM: TGI (ACHN renal)
44.4 µM: TGI (CAKI-1 renal)
45.1 µM: TGI (SF-539 CNS)
97.2 µM: TGI (SW-620 colon)
63.8 µM: TGI (HS 578T breast)
45 µM: TGI (PC-3 prostate)
30.8 µM: TGI (MDA-MB-435)

C=CCOc1c(Br)cc(Br)cc1Br
inactive: GI50 (786-0 renal) 34.1 µM | GI50 (A498 renal) 8.49 µM | GI50 (A549 NSCLC) 45.8 µM | GI50 (ACHN renal) 16.5 µM | GI50 (BT-549 breast) 35.5 µM | GI50 (CAKI-1 renal) 13 µM | GI50 (CCRF-CEM leukemia) 10.4 µM | GI50 (COLO 205 colon) 22.2 µM | GI50 (DU-145 prostate) 58.5 µM | GI50 (EKVX NSCLC) 10.3 µM | GI50 (HCC-2998 colon) 46.4 µM | GI50 (HCT-116 colon) 11.4 µM | GI50 (HCT-15 colon) 16.7 µM | GI50 (HL-60(TB) leukemia) 32.1 µM | GI50 (HOP-62 NSCLC) 23.5 µM | GI50 (HOP-92 NSCLC) 35.6 µM | GI50 (HS 578T breast) 17.8 µM | GI50 (HT29 colon) 33 µM | GI50 (IGROV1 ovarian) 5.26 µM | GI50 (K-562 leukemia) 7.92 µM | GI50 (KM12 colon) 14.1 µM | GI50 (LOX IMVI melanoma) 15.9 µM | GI50 (M14 melanoma) 19.6 µM | GI50 (MCF7 breast) 9.32 µM | GI50 (MDA-MB-231 breast) 6.7 µM | GI50 (MDA-MB-435) 3.46 µM | GI50 (MOLT-4 leukemia) 14.7 µM | GI50 (NCI-H226 lung) 24.8 µM | GI50 (NCI-H23 lung) 10.1 µM | GI50 (NCI-H460 lung) 8.21 µM | GI50 (NCI-H522 lung) 4.68 µM | GI50 (NCI/ADR-RES ovarian) 17.3 µM | GI50 (OVCAR-3 ovarian) 3.12 µM | GI50 (OVCAR-4 ovarian) 13.6 µM | GI50 (OVCAR-5 ovarian) 28.2 µM | GI50 (OVCAR-8 ovarian) 28.2 µM | GI50 (PC-3 prostate) 68 µM | GI50 (RPMI-8226 leukemia) 16.2 µM | GI50 (RXF 393 renal) 19.3 µM | GI50 (SF-268 CNS) 21.1 µM | GI50 (SF-295 CNS) 2.71 µM | GI50 (SF-539 CNS) 20.9 µM | GI50 (SK-MEL-2 melanoma) > 100 µM | GI50 (SK-MEL-28 melanoma) 75.5 µM | GI50 (SK-MEL-5 melanoma) 43.4 µM | GI50 (SK-OV-3 ovarian) 55.5 µM | GI50 (SN12C renal) 30 µM | GI50 (SNB-19 CNS) 17.4 µM | GI50 (SNB-75 CNS) 20.2 µM | GI50 (SR leukemia) 4.84 µM | GI50 (SW-620 colon) 22.6 µM | GI50 (T-47D breast) 31.4 µM | GI50 (TK-10 renal) > 100 µM | GI50 (U251 CNS) 8.28 µM | GI50 (UACC-257 melanoma) 57.6 µM | GI50 (UACC-62 melanoma) 4.8 µM | GI50 (UO-31 renal) 2.82 µM
91.7 µM: TGI (UACC-62 melanoma)
> 100 µM: TGI (786-0 renal) | TGI (A498 renal) | TGI (A549 NSCLC) | TGI (ACHN renal) | TGI (BT-549 breast) | TGI (CCRF-CEM leukemia) | TGI (DU-145 prostate) | TGI (EKVX NSCLC) | TGI (HCC-2998 colon) | TGI (HCT-15 colon) | TGI (HOP-62 NSCLC) | TGI (HOP-92 NSCLC) | TGI (HS 578T breast) | TGI (HT29 colon) | TGI (K-562 leukemia) | TGI (LOX IMVI melanoma) | TGI (M14 melanoma) | TGI (MCF7 breast) | TGI (MDA-MB-231 breast) | TGI (NCI-H226 lung) | TGI (NCI-H23 lung) | TGI (NCI-H460 lung) | TGI (NCI/ADR-RES ovarian) | TGI (OVCAR-5 ovarian) | TGI (OVCAR-8 ovarian) | TGI (PC-3 prostate) | TGI (RPMI-8226 leukemia) | TGI (RXF 393 renal) | TGI (SF-268 CNS) | TGI (SF-539 CNS) | TGI (SK-MEL-2 melanoma) | TGI (SK-MEL-28 melanoma) | TGI (SK-MEL-5 melanoma) | TGI (SK-OV-3 ovarian) | TGI (SN12C renal) | TGI (SNB-19 CNS) | TGI (SNB-75 CNS) | TGI (SR leukemia) | TGI (T-47D breast) | TGI (TK-10 renal) | TGI (U251 CNS) | TGI (UACC-257 melanoma)
17.2 µM: TGI (OVCAR-3 ovarian)
56.9 µM: TGI (COLO 205 colon)
66.1 µM: TGI (MDA-MB-435)
30.7 µM: TGI (NCI-H522 lung)
89.4 µM: TGI (SW-620 colon)
57.8 µM: TGI (UO-31 renal)
9.53 µM: TGI (SF-295 CNS)
39.9 µM: TGI (OVCAR-4 ovarian)
83.6 µM: TGI (CAKI-1 renal)
45.7 µM: TGI (KM12 colon)
66.2 µM: TGI (HCT-116 colon)
67.1 µM: TGI (IGROV1 ovarian)
89.3 µM: TGI (HL-60(TB) leukemia)
99.1 µM: TGI (MOLT-4 leukemia)

— PubChem BioAssay (NCI)
